Data on one compound can be found in patent US11045510B2, “Combination of aqueous extracts of watercress and nasturtium and ATP for use in the treatment of alopecia” (PIERRE FABRE DERMO-COSMETIQUE, priority 2017, dated 2021).

SMILES strings stand for the structures.

For experiment [1], the system named is keratinocyte growth factor (KGF) released by dermal papilla cells. Nature of the experiment: KGF release by dermal papilla cells derived from human hair follicles. The following applies: ATP 30 μM. In kind it is cell-based. The protocol:
(§1) The goal of this study is to evaluate the effects of the combination of an aqueous extract of watercress and of an aqueous extract of Indian cress, combined with ATP on the release of 2 anagen phase markers, hepatocyte growth factor (HGF) and keratinocyte growth factor (KGF), released by dermal papilla cells. These two growth factors have a stimulatory activity on hair growth by activating specific signalling pathways.
(§2) The studies were carried out on dermal papilla cells derived from human hair follicles from three different donors. The cells are seeded in 24-well plates and cultured for 24 h with the necessary supplements. The cells are then treated for 24 h with the products, i.e., either with ATP (30 μM), with Cressatine®, i.e., an aqueous extract of watercress and an aqueous extract of Indian cress (140 μg/ml), or with the combination ATP-Cressatine® at the same concentrations as before. The supernatants were collected for subsequent analysis of markers HGF and KGF. HGF is measured using set HCCBP1MAG-58K from EMD Millipore and KGF is measured by using set KGF/FGF-7 DuoSet ELISA DY251 from R&D Systems.

The test system of experiment [2] is hepatocyte growth factor (HGF) released by dermal papilla cells. Nature of the experiment: HGF release by dermal papilla cells derived from human hair follicles. The format is cell-based. The following applies: ATP 30 μM. The protocol:
as §1, §2

[3] abbreviates: cells treated for 24 h, Cressatine 140 μg/ml, combination at same concentrations, average of 3 donors.

For the compound `Nc1ncnc2c1ncn2[C@@H]1O[C@H](COP(=O)(O)OP(=O)(O)OP(=O)(O)O)[C@@H](O)[C@H]1O` [ATP, adenosine 5′-triphosphate], the KGF in experiment [1] (setting [3]) was determined as 37 pg/mL. The “higher secretion of KGF” value in experiment [1] (versus control, 24 h) stood at 50%. In experiment [2] (setting [3]), the HGF is 92 pg/mL. Also, the “modulation of the production of HGF (in words)” value in experiment [2] (versus control, 24 h) was “does not significantly modulate”.
